Results from patent US7309712B2, “1H-pyrazoles useful in therapy” (Pfizer Limited, priority 2005, dated 2007).

Assays:
[1] = molecular target: T1, Progesterone Receptor (PR) (Homo sapiens, UniProt P06401); assay: In vitro functional assay for progesterone receptor (PR) antagonism: inhibition of progesterone-induced alkaline phosphatase expression in T47D cells (Screen 1.0); type: cell-based; details: antagonist format (5 nM P4), alkaline phosphatase inhibition in T47D human mammary carcinoma cells
T1 construct: endogenous in cells; host or cells: T47D human breast mammary carcinoma cells
T1 sequence (P06401 1-933): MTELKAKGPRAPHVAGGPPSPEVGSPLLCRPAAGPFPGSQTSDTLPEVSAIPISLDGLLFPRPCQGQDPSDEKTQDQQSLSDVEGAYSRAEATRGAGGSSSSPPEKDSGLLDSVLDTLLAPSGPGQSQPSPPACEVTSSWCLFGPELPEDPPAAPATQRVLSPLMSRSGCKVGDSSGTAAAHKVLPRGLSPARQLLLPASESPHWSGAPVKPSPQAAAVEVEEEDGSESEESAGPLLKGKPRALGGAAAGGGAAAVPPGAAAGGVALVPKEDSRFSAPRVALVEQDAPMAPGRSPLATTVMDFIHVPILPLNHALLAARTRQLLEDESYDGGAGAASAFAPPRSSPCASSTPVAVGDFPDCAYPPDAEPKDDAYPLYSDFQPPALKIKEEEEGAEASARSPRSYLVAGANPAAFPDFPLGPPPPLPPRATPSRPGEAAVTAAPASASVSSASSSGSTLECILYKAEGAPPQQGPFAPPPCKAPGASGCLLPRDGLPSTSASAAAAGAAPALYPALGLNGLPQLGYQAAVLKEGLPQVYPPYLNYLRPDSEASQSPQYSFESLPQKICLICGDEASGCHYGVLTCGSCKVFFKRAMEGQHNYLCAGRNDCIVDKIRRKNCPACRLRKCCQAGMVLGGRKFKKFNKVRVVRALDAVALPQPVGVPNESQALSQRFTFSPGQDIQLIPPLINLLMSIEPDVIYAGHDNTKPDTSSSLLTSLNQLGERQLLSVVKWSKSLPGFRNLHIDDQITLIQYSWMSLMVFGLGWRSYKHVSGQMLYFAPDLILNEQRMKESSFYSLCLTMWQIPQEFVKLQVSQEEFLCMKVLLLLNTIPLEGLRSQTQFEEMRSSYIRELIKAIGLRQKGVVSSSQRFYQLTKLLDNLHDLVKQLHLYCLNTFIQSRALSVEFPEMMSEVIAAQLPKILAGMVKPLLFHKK
From the text: 1.0 In Vitro Functional Assay for Progesterone Receptor (PR) Antagonism
The assay for PR antagonism takes advantage of the extensively reported modulation of alkaline phosphatase (AP) expression in human breast T47D mammary carcinoma cells {Beck, et al., (1993). The progesterone antagonist RU486 acquires agonist activity upon stimulation of cAMP signalling pathways. Proc. Natl. Acad. Sci., USA, 90, 4441-4445; Fensome, et al. (2002). New progesterone receptor antagonists: 3,3-disubstituted-5-aryloxindoles. Bioorg. Med. Chem. Lett., 12, 3487-3490; Zhang et al., (2002a). 6-Aryl-1,4-dihydro-benzo d 1,3 oxazin-2-ones: a novel class of potent, selective, and orally active nonsteroidal progesterone receptor antagonists. J. Med. Chem., 45, 4379-4382; Zhang et al., (2003). Novel 6-aryl-1,4-dihydrobenzo[d]oxazine-2-thiones as potent, selective, and orally active nonsteroidal progesterone receptor agonists. Bioorganic & Med. Chem. Lett., 13, 1313-1316; Zhang et al., (2002b). Potent nonsteroidal progesterone receptor agonists: synthesis and SAR study of 6-aryl benzoxazines. Bioorganic & Med. Chem. Lett., 12, 787-790; Zhang, et al., (2000). In vitro characterization of trimegestone: a new potent and selective progestin. Steroids 65, 637-643}. […] In the absence of progesterone any agonist activity is also observed as an induction of AP activity. By running the assay in two formats (±progesterone (P4)), compounds behaving as PR antagonists, agonists or partials can be identified.
The materials required to grow T47D cells and perform the progesterone-induced AP assay are outlined in Table 1.
Assay media (agonist format): DMEM without phenol red+5% CS-FCS+2 mM Glutamax. Assay media (antagonist format): DMEM without phenol red+5% CS-FCS+2 mM Glutamax+10 nM P4.
Briefly, T47D cells are grown by propagating in DMEM+10% FBS+2 mM Glutamax at 37° C./5% CO2. At 80-90% confluence, the media is exchanged for phenol red free DMEM+5% CS-FCS (Assay media) and cultured for a further 24 hrs at 37° C./5% CO2. T47D cells are then plated at 2.5×10^4 cells/well in 100 μL assay media in sufficient 96 well plates for the assay, in triplicates of each condition. For example, for a 5-point IC50 curve on one compound, this is equivalent to […]. These plates are then cultured for 24 hrs at 37° C./5% CO2, leaving the outside wells blank by the addition of 200 μL PBS.
A 10 mM stock solution of compounds is prepared in DMSO (stored −20° C. in 10 μL aliquots). A 10 mM DMSO stock of RU486 is used as a standard pure PR antagonist. The compounds under investigation are added to assay medium, or a mixture of 0.05% pluronic acid in PBS, ±10 nM P4 to give a final concentration of 20 μM (i.e. 10 μL of the 10 mM stock to […] assay medium ±10 nM P4). The samples are mixed thoroughly and serial dilutions of compounds from 10 µM to 0.1 nM in a 96 well plate, are prepared as follows:
The outside wells are left blank. Assay medium (225 μL) is added to one half of the plate (−P4), rows 3-8, and to the other half of the plate, assay medium +10 nM P4. To row 2, 250 μL of the top concentration of compound (20 μM±10 nM P4) is added. 25 μL of the […] stock from row 2 is removed and added to the 225 μL of assay medium±10 nM P4 in row 3 and thoroughly mixed. This process is repeated down the plate to row 7 to achieve serial dilutions. The vehicle control is adjusted to contain 0.1% DMSO (i.e. 20 μL to 10 mL assay medium±10 nM P4 to give a concentration of 0.2% DMSO, add 250 μL to row 8).
100 μL of reagent from the dilution plates are transferred into the corresponding wells containing T47D cells assay medium, to give a final concentration of 10 μM to 0.1 nM compound (5 nM P4 antagonist format). The cells were incubated for 20 hrs at 37° C./5% CO2., then media is removed, cells washed with PBS (200 μL) and lysed by placing the cells at −80° C. for 15 min and thawing at room temp. The freeze-thaw lysis is repeated, then PBS (50 μL) is added to each well. […]

Row | SMILES | melting point | IC50 [1]
1 | CS(=O)(=O)Cn1nc(C2CC2)c(Oc2ccc(C#N)cc2)c1C1CC1 [Example 1, 4-(3,5-Dicyclopropyl-1-methanesulfonylmethyl-1H-pyrazol-4-yloxy)-benzonitrile] | 141.5 to 142.5 °C | –
2 | Cc1cc(Oc2c(C3CC3)nn(CS(C)(=O)=O)c2C2CC2)ccc1C#N [Example 2, 4-(3,5-dicyclopropyl-1-methanesulfonylmethyl-1H-pyrazol-4-yloxy)-2-methyl-benzonitrile] | 140.7 to 141.3 °C | –
3 | Cc1cc(Oc2c(C3CC3)nn(CS(C)(=O)=O)c2C2CC2)cc(C)c1C#N [Example 3, 4-(3,5-dicyclopropyl-1-methanesulfonylmethyl-1H-pyrazol-4-yloxy)-2,6-dimethyl-benzonitrile] | – | 8 nM
4 | CS(=O)(=O)Cn1nc(C2CC2)c(Oc2ccc(C#N)c(F)c2)c1C1CC1 [Example 5, 4-(3,5-dicyclopropyl-1-methanesulfonylmethyl-1H-pyrazol-4-yloxy)-2-fluoro-benzonitrile] | – | 44 nM
5 | Cc1cc(Oc2c(C3CC3)nn(CS(C)(=O)=O)c2C)ccc1C#N [Example 17, 4-(3-cyclopropyl-1-methanesulfonylmethyl-5-methyl-1H-pyrazol-4-yloxy)-2-methyl-benzonitrile] | – | 22 nM

Results, then the compound that gave them:

Row | melting point | IC50 [1] | SMILES
6 | – | 7 nM | Cc1cc(Oc2c(C3CC3)nn(CS(C)(=O)=O)c2C)cc(C)c1C#N [Example 19, 4-(3-cyclopropyl-1-methanesulfonylmethyl-5-methyl-1H-pyrazol-4-yloxy)-2,6-dimethyl-benzonitrile]
7 | – | 15 nM | Cc1cc(Oc2c(C)nn(CS(C)(=O)=O)c2C2CC2)cc(C)c1C#N [Example 20, 4-(5-cyclopropyl-1-methanesulfonylmethyl-3-methyl-1H-pyrazol-4-yloxy)-2,6-dimethyl-benzonitrile]
8 | – | 6 nM | CCc1nn(CS(C)(=O)=O)c(CC)c1Oc1cc(C)c(C#N)c(C)c1 [Example 23, 4-(3,5-diethyl-1-methanesulfonylmethyl-1H-pyrazol-4-yloxy)-2,6-dimethyl-benzonitrile]
